From patent US20070015774A1, “Quinazoline derivatives useful in cancer treatment” (Schering Corporation, priority 2005, published 2007)
Like-named read-outs stand apart in the source and are kept apart here.

Biological target: GST-p53 DNA binding domain (aa 92-aa 312) (Homo sapiens, UniProt P04637)
Assay: Scintillation Proximity Assay (SPA), displacement of 3H STANDARD COMPOUND
Settings: 1 h, 2 ug/mL of drug, read-out: SPA ASSAY % Residual T @ 2 ug/mL of drug (Average of)
Source text: Most of the oncogenic mutants of the tumor suppressor protein p53 lack sequence specific DNA binding activity at physiological temperature due to conformational changes in the DNA binding domain. Small molecules and peptide which bind to the p53 DNA binding domain stabilize the conformation and restore DNA binding activity to mutant p53 protein (Science 286, 2507-2510, 1999; PNAS, 99, 937-942, 2002). Using ^3H STANDARD COMPOUND (structure shown below; carbon atom with * is the atom labelled), [drawing 1366] a radio labeled small molecule which binds to p53, and the GST-p53 DNA binding domain (aa 92-aa 312), we have developed a quantitative screening assay. The assay is based on Scintillation Proximity Assay (SPA) technology, developed by Amersham Biosciences to measure molecular interactions. Briefly, the complex of GST-p53, ^3H STANDARD and Glutathione-SPA beads (Amersham Biosciences) are incubated with mixing for 1 hr at room temperature in the presence of the novel compounds to be screened. The signal is read on Microbeta. The compounds which have the ability to displace ^3H STANDARD COMPOUND are selected. Such molecules will stabilize the conformation and restore DNA binding activity to mutant p53 protein.
The above assay was used to determine the ability of the compounds of this invention to directly bind to p53 core and restore DNA binding activity to mutant p53 and the results for selected compounds have been given above in various tables.
A letter rating corresponding to % Residual total binding (T) @ 2 ug/mL of drug (i.e., compound of the present invention) from this assay have been assigned as follows: Compounds having % Residual T values of from 0% to less than 20% have been assigned the letter “A”. Compounds having % Residual T values of from 20% to less than 40% have been assigned the letter “B”. Compounds having % Residual T values of from 40% to less than 80% have been assigned the letter “C”. Compounds having % Residual T values of 80% or higher have been assigned the letter “D”. The exact % Residual T values @ 2 ug/mL for some illustrative compounds are shown below: […]

[1] = residual total binding of 3H STANDARD COMPOUND, lower is better
[2] = letter rating, number in brackets = number of determinations averaged
[3] = exact values, number in brackets = number of determinations averaged

GST-p53 DNA binding domain (aa 92-aa 312), sequence (P04637 92-312): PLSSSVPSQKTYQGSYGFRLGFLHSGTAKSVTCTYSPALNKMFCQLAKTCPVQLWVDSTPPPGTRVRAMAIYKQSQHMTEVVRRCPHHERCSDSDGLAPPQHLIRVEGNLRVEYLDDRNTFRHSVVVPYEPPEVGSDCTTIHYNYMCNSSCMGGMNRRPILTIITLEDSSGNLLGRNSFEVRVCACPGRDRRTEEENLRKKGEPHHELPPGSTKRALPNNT

Row | Structure (SMILES) | remaining activity at 2 µg/mL [2] | other results
1 | COC(=O)[C@@H](Nc1nc(CNC(=O)Nc2ccccc2C(F)(F)F)nc2ccccc12)C(C)C [34-36] |  | remaining activity at 2 µg/mL [1]: 40 to 80%
2 | COC(=O)[C@@H](Nc1nc(CNC(=O)Nc2ccc(Cl)c(Cl)c2)nc2ccccc12)C(C)C [34-39] |  | remaining activity at 2 µg/mL [1]: 40 to 80%
3 | COC(=O)[C@@H](Nc1nc(CNC(=O)Nc2cc(Cl)cc(Cl)c2)nc2ccccc12)C(C)C [34-40] |  | remaining activity at 2 µg/mL [1]: 40 to 80%
4 | COC(=O)[C@@H](Nc1nc(CNC(=O)Nc2ccccc2-c2ccccc2)nc2ccccc12)C(C)C [34-41] |  | remaining activity at 2 µg/mL [1]: 40 to 80%
5 | COC(=O)[C@@H](Nc1nc(CNC(=O)Nc2cccc(Br)c2)nc2ccccc12)C(C)C [34-42] |  | remaining activity at 2 µg/mL [1]: 40 to 80%
6 | CC(C)CCN(C)Cc1nc(NCCCN(C)C)c2ccccc2n1 [38-1] | 20 to 40% | 
7 | CCC(C)CN(C)Cc1nc(NCCCN(C)C)c2ccccc2n1 (stereo not shown) [38-2] | 40 to 80% | 
8 | CN(C)CCCNc1nc(CN(C)Cc2ccco2)nc2ccccc12 [38-3] | 40 to 80% | 
9 | CN(C)CCCNc1nc(CN(C)Cc2nccs2)nc2ccccc12 [38-10] | 20 to 40% | 
10 | CN(C)CCCNc1nc(CN(C)Cc2cccc(F)c2)nc2ccccc12 [38-16] | ≥ 80% | 
11 | CN(C)CCCNc1nc(CN(C)Cc2ccccc2C#N)nc2ccccc12 [38-18] | 40 to 80% | 
12 | CN(C)CCCNc1nc(CN(C)Cc2ccc(C#N)cc2)nc2ccccc12 [38-20] | 40 to 80% | 
13 | Cc1cccc(C)c1CN(C)Cc1nc(NCCCN(C)C)c2ccccc2n1 [38-24] | ≥ 80% | 
14 | CN(C)CCCNc1nc(CN(C)Cc2c(F)cccc2F)nc2ccccc12 [38-31] | 40 to 80% | 
15 | CCOC(=O)C1CC1CN(C)Cc1nc(NCCCN(C)C)c2ccccc2n1 (stereo not shown) [38-32] | 40 to 80% | 
16 | CN(C)CCCNc1nc(CN(C)Cc2cccc3cc[nH]c23)nc2ccccc12 [38-33] | 20 to 40% | remaining activity at 2 µg/mL [3]: 25.7%
17 | CN(C)CCCNc1nc(CN(C)Cc2cc3ccccc3o2)nc2ccccc12 [38-34] | 40 to 80% | 
18 | CC(CCN(C)Cc1nc(NCCCN(C)C)c2ccccc2n1)c1ccccc1 (stereo not shown) [38-35] | ≥ 80% | 
19 | CN(C)CCCNc1nc(CN(C)Cc2ccccc2C(=O)O)nc2ccccc12 [38-36] | ≥ 80% | 
20 | CN(C)CCCNc1nc(CN(C)Cc2cccc3c2OCO3)nc2ccccc12 [38-37] | 40 to 80% | 
21 | COC(=O)c1ccc(CN(C)Cc2nc(NCCCN(C)C)c3ccccc3n2)cc1 [38-46] | 40 to 80% | 

Row | Structure (SMILES) | remaining activity at 2 µg/mL [2] | other results
22 | CN(C)CCCNc1nc(CN(C)Cc2cccc(Cl)c2Cl)nc2ccccc12 [38-50] | ≥ 80% | 
23 | CN(C)CCCNc1nc(CN(C)Cc2cc(Cl)ccc2Cl)nc2ccccc12 [38-52] | 40 to 80% | 
24 | Cc1c(CN(C)Cc2nc(NCCCN(C)C)c3ccccc3n2)sc2ccccc12 [38-56] | 20 to 40% | remaining activity at 2 µg/mL [3]: 23.6%
25 | CN(C)CCCNc1nc(CN(C)C2CCC2)nc2ccccc12 [38-68] | ≥ 80% | 
26 | CN(C)CCCNc1nc(CN(C)C2CCCCC2)nc2ccccc12 [38-72] | 40 to 80% | 
27 | CN(C)CCCNc1nc(CN(C)C2CCSC2)nc2ccccc12 (stereo not shown) [38-74] | 40 to 80% | 
28 | CN(C)CCCNc1nc(CN(C)C2C[C@@H]3CC[C@H]2C3)nc2ccccc12 (stereo partly shown) [38-75] | ≥ 80% | 
29 | CC1CCC(N(C)Cc2nc(NCCCN(C)C)c3ccccc3n2)CC1 (stereo not shown) [38-77] | 40 to 80% | 
30 | CC(C)C1CCC(N(C)Cc2nc(NCCCN(C)C)c3ccccc3n2)CC1 (stereo not shown) [38-81] | 0 to 20% | remaining activity at 2 µg/mL [3]: 13.5%
31 | CC(=O)N1CCC(N(C)Cc2nc(NCCCN(C)C)c3ccccc3n2)CC1 [38-82] | 40 to 80% | 
32 | CN(C)CCCNc1nc(CN(C)C2CCC3CCCCC3C2)nc2ccccc12 (stereo not shown) [38-83] | 20 to 40% | remaining activity at 2 µg/mL [3]: 28.7%
33 | CN(C)CCCNc1nc(CN(C)C2CCC3(CC2)OCCO3)nc2ccccc12 [38-85] | 20 to 40% | remaining activity at 2 µg/mL [3]: 23%
34 | CN(C)CCCNc1nc(CN(C)C2CCCC(C(F)(F)F)C2)nc2ccccc12 (stereo not shown) [38-86] | 40 to 80% | 
35 | CN(C)CCCNc1nc(CN(C)C2CCC(C(F)(F)F)CC2)nc2ccccc12 (stereo not shown) [38-87] | 40 to 80% | 
36 | CN(C)CCCNc1nc(CN(C)C2CCC(C#N)(c3ccccc3)CC2)nc2ccccc12 (stereo not shown) [38-90] | 0 to 20% | remaining activity at 2 µg/mL [3]: 5.5%
37 | CN(C)CCCNc1nc(CN(C)C2CCN(C(=O)c3ccccc3)CC2)nc2ccccc12 [38-91] | 20 to 40% | remaining activity at 2 µg/mL [3]: 20.7%
38 | COc1ccc(Cl)cc1NC(=O)N(C)Cc1nc(NCCCN(C)C)c2ccccc2n1 [41-30] |  | remaining activity at 2 µg/mL (letter rating, Examples 41 table): 40 to 80%
39 | COc1ccc(/C=C/c2nc(NCCCN(C)C)c3ccccc3n2)cc1 [CP-31398, reference compound] |  | remaining activity at 2 µg/mL [3]: 61.3%
40 | CN(Cc1ccccc1)Cc1nc2ccccc2c(=O)[nH]1 [PE-17] |  | remaining activity at 2 µg/mL [3]: 36.8%
41 | CN(C)CCCNc1nc(CN(C)Cc2ccccc2)nc2ccccc12 [PE-19] |  | remaining activity at 2 µg/mL [3]: 22.2%

Further lines, with some results ahead:

Row | remaining activity at 2 µg/mL [2] | Structure (SMILES) | other results
42 | 40 to 80% | CN(C)CCCNc1nc(CN(C)Cc2ccoc2)nc2ccccc12 [38-4] | 
43 | ≥ 80% | CN(C)CCCNc1nc(CN(C)Cc2cccs2)nc2ccccc12 [38-8] | 
44 | 40 to 80% | CN(C)CCCNc1nc(CN(C)Cc2cccc(C#N)c2)nc2ccccc12 [38-19] | 
45 | ≥ 80% | CN(C)CCCNc1nc(CN(C)C/C=C/c2ccccc2)nc2ccccc12 [38-21] | 
46 | 40 to 80% | COc1ccc(CN(C)Cc2nc(NCCCN(C)C)c3ccccc3n2)cc1 [38-27] | 
47 | 40 to 80% | CN(C)CCCNc1nc(CN(C)Cc2ccc(Cl)cc2)nc2ccccc12 [38-30] | 
48 | 40 to 80% | CN(C)CCCNc1nc(CN(C)Cc2cccc3ccccc23)nc2ccccc12 [38-41] | 
49 | 40 to 80% | CN(C)CCCNc1nc(CN(C)Cc2ccc3ccccc3c2)nc2ccccc12 [38-42] | 
50 | 40 to 80% | CN(C)CCCNc1nc(CN(C)Cc2cccc(C(F)(F)F)c2)nc2ccccc12 [38-48] | 
51 | ≥ 80% | CN(C)CCCNc1nc(CN(C)Cc2ccccc2OCC(=O)O)nc2ccccc12 [38-57] | 
52 | ≥ 80% | CN(C)CCCNc1nc(CN(C)Cc2ccc(-c3ccccc3)cc2)nc2ccccc12 [38-59] | 
53 | 40 to 80% | CN(C)CCCNc1nc(CN(C)Cc2ccc(Oc3ccccc3)cc2)nc2ccccc12 [38-64] | 
54 | ≥ 80% | CN(C)CCCNc1nc(CN(C)Cc2ccc(C#Cc3ccccc3)cc2)nc2ccccc12 [38-65] | 
55 | 40 to 80% | CN(C)CCCNc1nc(CN(C)Cc2cccn2S(=O)(=O)c2ccccc2)nc2ccccc12 [38-66] | 
56 | 40 to 80% | CN(C)CCCNc1nc(CN(C)Cc2ccccc2Sc2ccc(Cl)cc2)nc2ccccc12 [38-67] | 
57 | 0 to 20% | CN(C)CCCNc1nc(CN(C)C2CCC(C(C)(C)C)CC2)nc2ccccc12 (stereo not shown) [38-84] | remaining activity at 2 µg/mL [3]: 7.8%
58 | 0 to 20% | CCC(C)(C)C1CCC(N(C)Cc2nc(NCCCN(C)C)c3ccccc3n2)CC1 (stereo not shown) [38-88] | remaining activity at 2 µg/mL [3]: 6.3%
59 | 20 to 40% | CN(C)CCCNc1nc(CN(C)C2CCC(c3ccccc3)CC2)nc2ccccc12 (stereo not shown) [38-89] | remaining activity at 2 µg/mL [3]: 21%
60 | 40 to 80% | CN(C)CCCNc1nc(CN(C)CC2CCCCC2)nc2ccccc12 [38-93] | 
